Assay results published in patent US20140066385A1, “METHOD FOR TREATING CANCER BY COMBINED USE OF DRUGS” (Astellas Pharma Inc., priority 2011, published 2014).

Experiments:
[1] = tested on: human ovarian cancer (MCAS); test: Example 12: FK330 with paclitaxel in MCAS tumor-bearing mice; assay type: in vivo, nude mice; conditions: FK330 100 mg/kg bid p.o. + paclitaxel 10 mg/kg/day i.v. (5 days each cycle)
Method: (§1) The dose of FK330 is expressed in terms of the weight of a simple substance (non-hydrate). Paclitaxel was purchased from LC Laboratories, Inc. (Woburn, Mass., USA), and was used as paclitaxel.
(§2) FK330 was suspended (20 mg/mL) in a 0.5% aqueous methyl cellulose solution (0.5% MC), and was orally administered. Paclitaxel was prepared into a stock solution at 10 mg/mL with an ethanol/cremophor solution (mixed at 1:1), and then the stock solution was diluted to 1 mg/mL with physiological saline for injection (Otsuka Pharmaceutical Group) immediately before administration and was intravenously administered through the tail vein.
Human ovary cancer-derived MCAS (JCRB0240) was obtained from Health Science Research Resources Bank (HSRRB) and used. The cells were cultured under the conditions of 37° C. and 5% CO2 by using EMEM medium containing 20% fetal bovine serum (FBS). […]
(§3) The body weight and the tumor diameter, determined by using a digital caliper, were measured twice a week. The tumor volume was calculated from the calculation formula for ellipsoid volume of (major axis×[minor axis]^2×0.5).
The results are expressed as the mean value (Mean)±standard error (SEM). […]

[2] = tested on: human breast cancer (MDA-MB-231); test: Example 6: FK330 with paclitaxel in MDA-MB-231 tumor-bearing mice; assay type: in vivo, nude mice; conditions: FK330 100 mg/kg bid p.o. + paclitaxel 10 mg/kg/day i.v. (4 days each cycle), P<0.01
Method: as §1, §2
Human breast cancer-derived MDA-MB-231 (HTB-26) was obtained from American Type Culture Collection (VA, USA). […]
as §3
The results are expressed as the mean value (Mean)±standard error (SEM). […] Using the actual measured values of the tumor volume at each measurement time points, an unpaired statistical test (Student's t-test) of the difference between two groups was carried out between a single administration group and a combined use group. […]

## O=C(/C=C/c1ccc(Cl)cc1)N[C@@H](Cc1ccccn1)C(=O)NCC(=O)N1CCC(Oc2cc(C(F)(F)F)ncn2)CC1 [FK330, N^2-[(2E)-3-(4-chlorophenyl)-2-propenoyl]-N-[2-oxo-2-(4-{[6-(trifluoromethyl)pyrimidin-4-yl]oxy}piperidin-1-yl)ethyl]-3-pyridin-2-yl-L-alaninamide]
[1]; Day 63, no significant difference
  tumor volume reduction ratio compared with the paclitaxel-only group: 61.5%
[1]; Day 91, P<0.05
  tumor volume reduction ratio compared with the paclitaxel-only group: 86.0%
[2]; Day 28
  tumor volume reduction ratio compared with the paclitaxel-only group: 59.6%
[2]; Day 66
  tumor volume reduction ratio compared with the paclitaxel-only group: 82.8%
